Source: patent US20110319352A1, “Compounds That Bind Oxysterol Binding Proteins, and Methods of Use Thereof” (President and Fellows of Harvard College, priority 2008, published 2011)
Residues, ends and D or L forms follow the SMILES beside them. *: point of attachment. Cbz = O=C(OCc1ccccc1)*

What was measured:
[1] = test system: HCT-116 p21−/− shNT and shOSBP cells; test: CRAM cytotoxicity after shRNA knockdown of OSBP, HCT-116 p21−/−; type: cell-based; details: HCT-116 p21−/−; for sensitization (GI50 shift) by OSBP knockdown: OSBP knockdown by 84%
Source text: FIG. 17 depicts CRAM cytotoxicity in shRNA OSBP knockdown cell lines. A: Dose curves from a representative experiment. B: GI50 values of CRAMs and control compounds in HCT-116 p21−/− shNT and shOSBP cells and densitometric analysis of OSBP-levels. shNT=non-targeting shRNA, shOSBP=OSBP-targeting shRNA; * P=0.0006 (n=4), ** P=0.0002 (n=3), *** P=0.0003 (n=3), and **** P≦0.0001 (n=7) compared to shNT-treated cells.
To determine whether the cytotoxicity of CRAMs depends on the amount of OSBP in cells, the effects of shRNA knockdown of OSBP on the growth inhibitory activity of CRAMs was measured. Treatment of HCT-116 p21^−/− cells with shRNA targeted to OSBP [24] caused an 84% reduction in the level of OSBP as measured by western blot (FIG. 17B, bottom right).

pERK1/2 in HCT-116 cells = test: Western blot of pERK1/2; type: cell-based; details: cephalostatin 1 50 nM, 25-OHC 20 μM 12 h
Method: FIG. 21 depicts Western blot and densitometry analysis of pERK1/2 in HCT-116 cells during treatment with 50 nM cephalostatin 1. 25-OHC (20 μM) and okadaic acid (OKA, 10 nM) treatments were for 12 h and 24 h, respectively.
As another test of whether CRAMs perturb a known OSBP function, it was determined whether CRAMs induce changes to the phosphorylation state of ERK1/2. As mentioned above, 25-OHC binds OSBP and causes disruption of a complex between OSBP and the phosphatases HePTP and PP2A. This blocks dephosphorylation of pERK1/2, leading to a persistence of pERK1/2. Opposing this effect is cholesterol, which binds OSBP, inducing formation of the OSBP-HePTP-PP2A ternary complex, causing ERK1/2 dephosphorylation (FIG. 13).

[2] = test system: OSBP localization in HCT-116 p21+/+ cells; test: OSBP localization by immunofluorescence confocal microscopy; type: cell-based; details: compound exposure 4 h (OSW-1 1 nM)
Method: FIG. 22 depicts OSBP localization in HCT-116 p21^+/+ cells imaged by immunofluorescence confocal microscopy. Immunofluorescence was used to image OSBP and the trans-Golgi protein p230 after compound exposure for 4 h. […] was labeled with Hoescht 33342.
As another way to investigate how CRAMs may affect OSBP, immunofluorescence (IF) experiments were performed in HCT-116 p21^+/+ cells to determine whether OSBP localization was altered upon treatment with different CRAMs. In untreated cells, OSBP resides largely at ER/cytoplasmic sites with a partial localization at the Golgi (FIG. 22A).
This translocation has been reported many times in the literature as an effect of 25-OHC on OSBP. Treatment of cells with OSW-1 at 1 nM for 4 h caused a dramatic and unprecedented effect on OSBP localization (FIG. 22C). […] In this case p230 has been dispersed (see […]). The translocation of OSBP induced by 2 is distinct from that of 25-OHC. […] They also reveal that the effects on OSBP translocation by 1 and 2 are distinct from 25-OHC.

OSBP protein levels = OSBP protein levels by western blot; type: cell-based
Method: One unanticipated discovery from the IF studies was that, after several hours, CRAM treatment of cells caused a significant reduction in the intensity of the OSBP fluorescent signal. This could mean that CRAMs are inducing a reduction in OSBP protein levels: an effect not observed with 25-OHC. The amount of OSBP protein in cells exposed to CRAMs was measured by western blot. […] Cephalostatin 1 induced a 70% reduction in OSBP at 12 h, and OSW-1 caused a 69% reduction in OSBP at 24 h. […] This supports a situation where reduction of OSBP levels by 1 and 2 is a result of a proteasome-dependent degradation process. One possible scenario is that 1 and 2 are also causing protein level reductions of ORPs and this is the source of cytotoxicity of CRAMs.

[3] = cytotoxicity of 25-OHC (cells not named); type: cell-based; details: doses up to 1000 times its OSBP Kd
recombinant OSBP-myc-his = target: T1, recombinant OSBP-myc-his (Homo sapiens, UniProt P22059); test: competitive binding assay, displacement of [3H]-25-OHC from OSBP (charcoal-dextran, liquid scintillation counting); details: for displacement of OSBP-bound [3H]-25-OHC: at low micromolar-concentrations
T1 construct: made in house; host or cells: HEK-293T (crude S100 lysate, not purified)
T1 sequence (P22059 1-807): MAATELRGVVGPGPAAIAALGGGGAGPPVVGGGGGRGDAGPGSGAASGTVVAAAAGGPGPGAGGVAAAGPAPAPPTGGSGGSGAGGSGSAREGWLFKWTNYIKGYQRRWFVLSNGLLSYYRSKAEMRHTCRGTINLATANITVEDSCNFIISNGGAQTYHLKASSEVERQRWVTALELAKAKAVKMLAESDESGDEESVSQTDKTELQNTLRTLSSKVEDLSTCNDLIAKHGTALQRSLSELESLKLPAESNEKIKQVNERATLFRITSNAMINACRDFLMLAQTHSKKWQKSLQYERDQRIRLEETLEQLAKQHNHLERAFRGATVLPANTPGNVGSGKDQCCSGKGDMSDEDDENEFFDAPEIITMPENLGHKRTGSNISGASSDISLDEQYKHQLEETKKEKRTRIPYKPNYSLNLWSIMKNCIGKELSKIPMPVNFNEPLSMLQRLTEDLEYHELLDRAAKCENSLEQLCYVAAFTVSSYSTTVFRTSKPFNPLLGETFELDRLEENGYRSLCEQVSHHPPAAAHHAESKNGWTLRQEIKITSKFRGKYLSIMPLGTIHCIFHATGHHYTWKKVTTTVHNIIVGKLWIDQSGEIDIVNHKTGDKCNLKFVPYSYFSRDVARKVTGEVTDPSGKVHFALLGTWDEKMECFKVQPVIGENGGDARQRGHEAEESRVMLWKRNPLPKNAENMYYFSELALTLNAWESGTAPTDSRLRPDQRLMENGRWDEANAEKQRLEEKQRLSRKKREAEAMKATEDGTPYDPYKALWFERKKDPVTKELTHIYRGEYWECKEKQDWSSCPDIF
Method: It has been determined that CRAMs inhibit the binding of radiolabelled 25-OHC ([^3H]-25-OHC) to recombinant OSBP-myc-his and ORP4-myc-his overexpressed in HEK-293T lysate (FIG. 18). It is known that 25-hydroxycholesterol is a high affinity ligand for OSBP and ORP4. Increasing concentrations of CRAMs or OSW-1 analogs were incubated with 20 nM [^3H]-25-OHC in OSBP-myc-his or ORP4-myc-his S100 lysate for 16 h at 4° C. after which unbound sterol was removed using charcoal-dextran and the bound sterol quantified by LCS (liquid scintillation counting).
These experiments provide evidence that CRAMs are ligands of OSBP and ORP4, and in the case of 1 and 2, they are high affinity ligands.
To measure the Kis of CRAMs to OSBP and ORP4 reported above, a previously reported dextran-coated charcoal assay was adapted into a 96-well format. […] To solve these limitations a binding SPA (scintillation proximity assay) for OSBP/ORPs (FIG. 26) will be developed.

HCT-116 p21−/− cells [4] = test: growth inhibition of HCT-116 cells lacking p21 (p21 dependence); type: cell-based; details: for dependence of growth inhibition on p21 status: HCT-116 p21−/− versus p21+/+
Source text: Values are mean±SD of 3 individual experiments each performed in sextublicate or from a single experiment performed in sextublicate. Values for […] were reported in the literature (see Beutler J A, Shoemaker R H, Johnson T, Boyd M R. “Cytotoxic geranyl stilbenes from Macaranga schweinfurthii,” J. Nat. Prod. 1998, 61(12), 1509-12).
[5] […] This shared p21 differential cytotoxicity supports the idea of a common CRAM mechanism of action and likely similar target. […] However, caution has to be exercised in concluding that compounds found to be selective for p21 deficient HCT-116 cells are truly synthetic lethal with p21. It was recently reported that compounds shown to be hypersensitive to HCT-116 p21^−/− cells was actually due to an overexpression of p53 in that cell line. Subsequent siRNA knockdown of p53 eliminated the apparent p21 synthetic lethality.

NCI-60 = details: read-out: GI50, average against the NCI-60; cited from earlier work
tumor xenograft = details: i.p. 9.3 mg/kg (Q2D×4); cited from earlier work
HCT-116 p21−/− cells [5] = details: cited from earlier work
HCT-116 p21+/+ cells = details: literature value [6]; cited from earlier work

Q: Which “sensitization by OSBP knockdown” value [1] does the source give for `CC(=O)O[C@H]1C(=O)[C@@]2(C)[C@H]([C@H](OC(=O)c3ccccc3)[C@]3(O)C[C@H](OC(=O)[C@H](O)[C@@H](NC(=O)c4ccccc4)c4ccccc4)C(C)=C1C3(C)C)[C@]1(OC(C)=O)CO[C@@H]1C[C@@H]2O` [taxol, reference compound] here?
A: Its value is “does not sensitize”.

Q: With `C[C@H](CCCC(C)(C)O)[C@H]1CC[C@H]2[C@@H]3CC=C4C[C@@H](O)CC[C@]4(C)[C@H]3CC[C@]12C` [25-OHC, 25-hydroxycholesterol, reference compound] as the compound, how does the pERK1/2 levels (pERK1/2 in HCT-116 cells) read?
A: Its pERK1/2 levels is “had the same effect as CRAMs”.

Q: What about the “effect on OSBP localization” value [2] of the same compound?
A: The value was “OSBP translocates to the Golgi”.

Q: What about the “effect on OSBP protein levels” value (OSBP protein levels) of the same compound?
A: The value was “not observed”.

Q: What about the cytotoxicity [3] of the same compound?
A: Its cytotoxicity is “not cytotoxic”.

Q: For `COc1cc(/C=C/c2cc(O)c(C/C=C(\C)CCC=C(C)C)c(O)c2)cc2c1O[C@]1(C)C[C@@H](O)[C@@H](O)C(C)(C)[C@H]1C2` [Schweinfurthin B, schweinfurthin B, reference compound], which “effect on OSBP localization” value [2] is on record?
A: Its value is “induced OSBP translocation, but in a manner similar to the 25-OHC effect”.

Q: Which “sensitization by OSBP knockdown” value [1] does the source give for `CC(C)C[C@H](NC(=O)[C@H](Cc1ccccc1)NC(=O)c1cnccn1)B(O)O` [bortezomib, reference compound] here?
A: The value was “does not sensitize”.

Q: With `C[C@@H]1[C@]2(O[C@H]3C=C4[C@@H]5CC[C@H]6Cc7nc8c(nc7C[C@]6(C)[C@H]5C[C@@H](O)[C@]4(C)[C@]31O)C[C@@H]1CC[C@H]3C4=CC[C@@H]5[C@H](C)[C@@]6(OC[C@]45C(=O)C[C@@H]3[C@@]1(C)C8)OC(C)(C)C[C@H]6O)O[C@](C)(CO)C[C@H]2O` [Cephalostatin 1] as the compound, how does the Ki (recombinant OSBP-myc-his; 20 nM [3H]-25-OHC, OSBP-myc-his S100 lysate (HEK-293T), 16 h at 4° C., read-out: Ki, displacing OSBP-bound [3H]-25-OHC) read?
A: Its Ki is 50 nM.

Q: What about the “differential GI50, HCT-116 p21−/− versus p21+/+” value (HCT-116 p21−/− cells [4]; 48 h (FIG. 14)) of the same compound?
A: Its value is 44 fold.

Q: And the “sensitization (GI50 shift) by OSBP knockdown” value [1]?
A: The value was 3.5 fold.

Q: What about the pERK1/2 levels (pERK1/2 in HCT-116 cells) of the same compound?
A: Its pERK1/2 levels is “significant increase in pERK1/2 starting at 12 h and persisting for at least 24 h”.

Q: And the “effect on OSBP localization” value [2]?
A: The value was “caused a significant amount of OSBP to co-localize with the plasma membrane”.

Q: What about the “effect on OSBP protein levels” value (OSBP protein levels) of the same compound?
A: The value was “time-dependent reduction in OSBP protein levels”.

Q: What about the “reduction in OSBP” value (OSBP protein levels; at 12 h) of the same compound?
A: The value was 70%.

Q: For schweinfurthin A, which “displacement of OSBP-bound [3H]-25-OHC” value (recombinant OSBP-myc-his) is on record?
A: The value was “displaced the bound ligand”.

Q: What about the “dependence of growth inhibition on p21 status” value (HCT-116 p21−/− cells [4]) of the same compound?
A: The value was “selectively growth inhibitory for HCT-116 cells lacking p21”.

Q: And the “sensitization by OSBP knockdown” value [1]?
A: The value was “sensitizes”.

Q: And the “sensitization (GI50 shift) by OSBP knockdown” value [1]?
A: The value was 8.9 fold.

Q: What about the GI50 (NCI-60) of the same compound?
A: Its GI50 is 360 nM.

Q: What about the “toxicity in xenograft mice” value (tumor xenograft) of the same compound?
A: Its value is “without overt toxicity”.

Q: And the tumor volume (tumor xenograft)?
A: Its tumor volume is “reduction in tumor volume compared to vehicle-treated controls”.

Q: Which “sensitization by OSBP knockdown” value [1] does the source give for `C[C@H]1CCC/C=C/[C@@H]2C[C@H](O)C[C@H]2[C@H](O)/C=C/C(=O)O1` [brefeldin A, reference compound] here?
A: The value was “does not sensitize”.

Q: Which “displacement of OSBP-bound [3H]-25-OHC” value (recombinant OSBP-myc-his) does the source give for ritterazine B here?
A: Its value is “displaced the bound ligand”.

Q: And the “dependence of growth inhibition on p21 status” value (HCT-116 p21−/− cells [4])?
A: The value was “selectively growth inhibitory for HCT-116 cells lacking p21”.

Q: What about the “sensitization by OSBP knockdown” value [1] of the same compound?
A: Its value is “sensitized”.

Q: Which results are given for `CC(/C=C/C=C(C)/C=C/C=C(\C)C(=O)O)=C1/C(=O)C[C@H]2[C@@]3(C)CCC(=O)C(C)(C)[C@@H]3CC[C@]12C` [(−)-stellettin E]?
A: GI50 (HCT-116 p21−/− cells [5]; literature value [6]): 39 nM; more cytotoxic to HCT-116 p21−/− compared to parental HCT-116 (HCT-116 p21−/− cells [5]; ratio of GI50, literature): 117 times; more active in HCT-116 lacking the p21 protein (HCT-116 p21−/− cells [5]; reported in the literature): 117 fold; GI50 (HCT-116 p21+/+ cells): 4570 nM

Q: With `CC(C)C[C@@H](C=O)NC(=O)[C@H](CC(C)C)NC(=O)[C@H](CC(C)C)NC(=O)OCc1ccccc1` [MG132, reference compound] (Cbz-Leu-Leu-Leu-aldehyde) as the compound, how does the “effect on OSBP protein levels” value (OSBP protein levels) read?
A: Its value is “complete rescue of OSBP levels”.
